Experimental data reported in PMC10223284, “Category-Based Toxicokinetic Evaluations of Data-Poor Per- and Polyfluoroalkyl Substances (PFAS) using Gas Chromatography Coupled with Mass Spectrometry” (Toxics, 2023).
Where “and” joins values, the source holds several entries; their conditions need not be identical. Identical values can stand only once. Like-named read-outs stand apart in the source and are kept apart here.

Tests used:
[1] = tested on: human plasma
[2] = Abiotic loss in negative controls of the hepatocyte clearance assay (cell-free media, metabolically inactivated hepatocytes); type: in vitro ADME
Summary of the method: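 Abiotic stability was checked with media-only and inactivated-hepatocyte controls, run at T0 and T240 or, on rerun, at more time points. Compound at 1 μM, 37 °C, acetonitrile quench. Loss rates served for background subtraction, and ≥50% loss by T120 meant exclusion.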

[3] = tested on: human plasma; remark: listed apart in the source
[4] = in vitro; conditions: both, human, plasma
[5] = tested on: pooled human cryopreserved primary hepatocyte suspensions; experiment: Hepatic metabolic stability (hepatocyte clearance) assay, substrate depletion; type: in vitro ADME
Summary of the method: (§1)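 Substrate depletion of 1 μM compound, 37 °C, with pooled human hepatocytes (50-donor, 50,000 cells/100 μL) in William's E; samples quenched in acetonitrile up to 240 min, triplicate time points. Intrinsic clearance (μL/min/million hepatocytes) and half-life derived from semi-log slope, background-adjusted using media-only and inactivated-cell controls; compounds with ≥50% abiotic loss at T120 excluded.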

[6] = as above; type: in vitro ADME, human; conditions: both sexes, human
Summary of the method: as §1

[7] = In vitro-in vivo extrapolation (IVIVE) to Css and administered equivalent dose (AED); set-up: species or system human
Protocol: Using the experimentally generated PPB (fraction unbound in plasma, fup) and hepatic Clint data, IVIVE was performed as previously described to calculate human steady-state plasma concentrations (Css). Briefly, experimental measures of fup are adjusted using blood:plasma partitioning information to estimate the fraction unbound in blood (fub). Experimental hepatocyte Clint data are scaled up to represent whole-liver clearance (L/h). […] Once estimated, these Css values are considered in conjunction with published in vitro bioactivity concentrations (i.e., lowest-observed effective concentrations, or LOECs) to calculate AEDs (Table 2). See Table S10 for all relevant IVIVE inputs, scalars, calculations, and outputs.

[8] = tested on: human plasma; experiment: Ultracentrifugation (UC) plasma protein binding assay, fraction unbound in plasma (fup)
[9] = tested on: human primary cells; conditions: cited from earlier work
[10] = tested on: human plasma; experiment: Chemical stability in plasma over the UC assay time course (T5hr/T1hr)
[11] = hepatocyte incubation, Rep 1-3, start conc 1000 nM
[12] = flag for stability failure in hepatocyte clearance assay controls (1 or Fst = fail, 0 = pass)
[13] = heat treated hepatocytes, Rep 1-3

**Q.** For COC(=O)C(F)(F)C(F)(F)OC(F)(C(F)(F)F)C(F)(F)OC(F)=C(F)F (stereo not drawn) [Methyl perfluoro(3-(1-ethenyloxypropan-2-yloxy)propanoate)], which “Aqueous Fraction, Run-specific Avg” value ([1]; both, human, 5 h, 10 μM) is on record?
**A.** The value was 200.27.

**Q.** What about the Fup.Med ([1]; both, human, 5 h, 10 μM) of the same compound?
**A.** Its Fup.Med is 0.0161.

**Q.** And the Fup.point ([1]; both, human, 5 h, 10 μM)?
**A.** Its Fup.point is 0.0235.

**Q.** What about the Hep_Stab_Fail ([2]; both, human, 120 min, 1 μM) of the same compound?
**A.** Its Hep_Stab_Fail is 1.

**Q.** And the Unstable [3]?
**A.** The Unstable was “Y”.

**Q.** And the “Time 1 hr, Run-specific Avg” value ([3]; both, human, 1 h, 10 μM)?
**A.** The value was 11859.81.

**Q.** And the Fstable.Med ([3]; both, human, 5 h, 10 μM)?
**A.** The Fstable.Med was 0.224.

**Q.** And the “Mean Stability” value ([3]; both, human, 5 h, 10 μM)?
**A.** The value was 0.836.

**Q.** What about the “Stability (T5hr/ T1hr), Run-specific Avg” value ([3]; both, human, 5 h, 10 μM) of the same compound?
**A.** Its value is 0.726.

**Q.** And the “Time 5 hr, Run-specific Avg” value ([3]; both, human, 5 h, 10 μM)?
**A.** Its value is 8614.65.

**Q.** And the PPB_Stab_Fail ([3]; both, human, plasma, 5 h, 10 μM)?
**A.** Its PPB_Stab_Fail is 1.

**Q.** What about the fraction unbound at 5 h, 10 μM ([4]; Fraction Unbound (fu), Run-specific Avg) of the same compound?
**A.** The fraction unbound at 5 h, 10 μM was 0.0232.

**Q.** What about the fraction unbound at 5 h, 10 μM ([4]; Mean Fu) of the same compound?
**A.** The fraction unbound at 5 h, 10 μM was 0.023.

**Q.** What does the source list for OCC(F)(F)C(F)(F)C(F)(F)C(F)(F)C(F)(F)C(F)(F)CO [1H,1H,8H,8H-Perfluorooctane-1,8-diol]?
**A.** Concentration (nM), Time 0 min [5, 11]: 833.88 nM and 886.538 nM and 918.72 nM; Concentration (nM), Time 15 min [5, 11]: 552.068 nM and 564.688 nM and 626.636 nM; Concentration (nM), Time 30 min [5, 11]: 572.698 nM and 772.55 nM and 675.577 nM; Concentration (nM), Time 60 min [5, 11]: 915.509 nM and 882.56 nM and 951.955 nM; Concentration (nM), Time 120 min [5, 11]: 252.926 nM and 197.823 nM and 212.459 nM; Linear Regression Results, Best-Fit Values, Slope ([5]; hepatocyte time course): -0.01141; hepatocyte CLint at 1 μM ([6]; hepatocytes, background-subtracted, read-out: Bkgd-Sub Clearance (µL/min/106 hepatocytes)): 20 µL/min/1e6 cells; hepatocyte CLint at 1 μM ([6]; hepatocytes, hepatocyte clearance, Conc 1000 nM, not background adjusted, read-out: Unadj Clint): 22.8 µL/min/1e6 cells; hepatocyte CLint at 1 μM ([6]; hepatocytes, pooled human hepatocyte suspensions, 1 μM, read-out: In Vitro Clint): 20 µL/min/1e6 cells; hepatocyte CLint at 1 μM ([6]; hepatocytes, unadjusted hepatocyte intrinsic clearance, read-out: Unadj in vitro Clint): 22.8 µL/min/1e6 cells; hepatocyte CLint at 1 μM ([6]; hepatocytes, hepatocyte time course, NS = slope not significant, read-out: Linear Regression Results, Best-Fit Values, Clearance): 22.8 µL/min/1e6 cells; half-life at 1 μM ([6]; hepatocytes, hepatocyte time course, NS = slope not significant, read-out: Linear Regression Results, Best-Fit Values, Half Life): 1.01 h; hepatocyte CLint at 1 μM ([6]; s9, Bayesian analysis median, 1 μM assay concentration (Table S9), read-out: Clint.1.Med): 5.03 µL/min/1e6 cells; Css ([7]; Assuming 1 mg/kg/day dose rate, BW 70 kg): 0.16 mg/L and 0.45 uM; Clhep ([7]; IVIVE, hepatocyte Clint scaled to whole-liver clearance): 17.326 L/h; AED ([7]; administered equivalent dose from LOEC and Css): 15.5263 mg/kg/day; Fub ([7]; fub=fup/(B:P), Fub set to 1 if needed): 0.1018; Css ([7]; human steady-state plasma concentration, assuming 1 mg/kg/day dosage): 0.45 µM; CLint ([7]; scaled with HPGL 110 mill cells/g, Vl 1596 g): 3512253 µL/min; half-life at 1 μM ([2]; buffer, no cells control, 0 vs 240 min, read-out: No Cells BkgdCl, Half Life): 8.21 h; Hep_Stab_Fail [2, 12]: 0; HT BkgdCl, Slope ([2]; heat treated hepatocytes control, 0 vs 240 min): -0.00103; Negative Controls, Heat Treated (HT), concentration at 0 min [2, 13]: 1090.28 nM and 973.38 nM and 645.077 nM; Negative Controls, Heat Treated (HT), concentration at 240 min [2, 13]: 595.287 nM and 737.448 nM and 742.842 nM; No Cells BkgdCl, Slope ([2]; no cells control, 0 vs 240 min): -0.001407; Negative Controls, No cells (NC), concentration at 0 min ([2]; no cells, Rep 1-3): 937.465 nM and 878.747 nM and 1163.86 nM; Negative Controls, No cells (NC), concentration at 240 min ([2]; no cells, Rep 1-3): 676.807 nM and 658.518 nM and 781.013 nM; Aqueous Fraction ([8]; amount measured in aqueous fraction after ultracentrifugation, replicates A, B, C, unit not given): 467.47 and 486.886 and 467.528 and 459.225 and 404.056 and 403.816; fup ([8]; human plasma, 10 μM, ultracentrifugation, 37 °C): 0.0560; Fup.Med ([8]; median fraction unbound in plasma, UC assay Level4): 0.0465; Fup.point ([8]; point estimate of fraction unbound in plasma, UC assay Level4): 0.0506; LOEC ([9]; BioSeek lowest-observed effect concentration used for AED): 7.00 µM; LOEC ([9]; minimum lowest-observed effect concentration, BioSeek platform): 7 µM; Time 1 hr ([10]; amount measured in plasma sample at 1 hr, replicates A, B, C, unit not given): 8242.79 and 6998.48 and 7495.85 and 8652.78 and 7694.03 and 8210.48; Time 5 hr ([10]; amount measured in plasma sample at 5 hr, replicates A, B, C, unit not given): 7470.56 and 8168.83 and 8821.07 and 7477.64 (2×) and 9359.65; Stability (T5hr/ T1hr), Run-specific Avg ([10]; average of one UC run (run date in line above)): 0.913; PPB_Stab_Fail ([10]; flag for stability failure in the plasma protein binding assay (1 = fail, 0 = pass)): 0; Mean Stability ([10]; mean T5hr/T1hr ratio over all replicates and runs, plasma): 0.997; Fstable.Med ([10]; median fraction stable in plasma, UC assay Level4): 0.989; fraction unbound ([4]; Fraction Unbound (fu), Run-specific Avg, average of one UC run (run date in line above)): 0.0529; fraction unbound ([4]; Fraction Unbound (fu), individual replicates A, B, C of the UC run named in c8): 0.0626; fraction unbound ([4]; Mean fu, fraction unbound in human plasma, ultracentrifugation, some values based on eLOQ): 0.056

**Q.** Which results are given for C=C(C)C(=O)OCCC(F)(F)C(F)(F)C(F)(F)C(F)(F)C(F)(F)C(F)(F)C(F)(F)C(F)(F)F [8:2 Fluorotelomer methacrylate]?
**A.** Fup.Med [1]: 0.0461; Fup.point [1]: 0.0503; Mean fu ([1]; human, plasma): 0.09; Hep_Stab_Fail [2, 12]: 1; Fstable.Med [3]: 0.0797; Unstable [3]: Y; % remaining_PPB ([3]; human, plasma): 66%; PPB_Stab_Fail ([3]; human, plasma): 0
